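Five compound concentrations were applied to cells in 96-well plates for 48 hours; endpoints were derived by simple linear interpolation of the resulting dose-response curve. Abbreviation: GI50, concentration required for 50% inhibition of growth.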 Calls of active or inactive are those of the source. No stated cut-off is given here; in the data, active = GI50 up to about 1.1 µM and inactive = higher.
What was measured:
Assay in all cases: NCI-60 cell line screen, 48 h
[1] = tested on: KM-20L2
[2] = tested on: CAKI-1
[3] = tested on: Malme-3M
[4] = tested on: SF-539
[5] = tested on: U-251
[6] = tested on: UO-31
[7] = tested on: OVCAR-8
[8] = tested on: EKVX
[9] = tested on: SN12C
[10] = tested on: CCRF-CEM
[11] = tested on: NCI-H522
[12] = tested on: UACC-257
[13] = tested on: 786-0
[14] = tested on: OVCAR-4
[15] = tested on: COLO 205
[16] = tested on: SR
[17] = tested on: M14
[18] = tested on: SW-620
[19] = tested on: DMS-114
[20] = tested on: TK-10
[21] = tested on: SK-OV-3
[22] = tested on: NCI-H23
[23] = tested on: HOP-62
[24] = tested on: SK-MEL-5
[25] = tested on: OVCAR-3
[26] = tested on: HT-29
[27] = tested on: HOP-92
[28] = tested on: ACHN
[29] = tested on: SK-MEL-2
[30] = tested on: SK-MEL-28
[31] = tested on: DLD-1
[32] = tested on: HCT-15
[33] = tested on: HCT-116
[34] = tested on: M19-MEL
[35] = tested on: SF-295
[36] = tested on: HCC 2998
[37] = tested on: A549
[38] = tested on: A498
[39] = tested on: LXFL 529
[40] = tested on: HL-60
[41] = tested on: RXF 393
[42] = tested on: SNB-19
[43] = tested on: UACC-62
[44] = tested on: IGROV-1
[45] = tested on: LOX IMVI
[46] = tested on: HOP-18
[47] = tested on: MOLT-4
[48] = tested on: SF-268
[49] = tested on: NCI-H226
[50] = tested on: SNB-75
[51] = tested on: K562
[52] = tested on: SNB-78
[53] = tested on: OVCAR-5
[54] = tested on: DMS-273
[55] = tested on: BT-549
[56] = tested on: MDA-N
[57] = tested on: NCI/ADR-RES
[58] = tested on: T47D
[59] = tested on: PC-3
[60] = tested on: NCI-H460
[61] = tested on: Hs-578T
[62] = tested on: KM12
[63] = tested on: DU-145
[64] = tested on: MDA-MB-435
[65] = tested on: RPMI-8226

Measured: GI50

COC(=O)C(=O)Cc1nc2ccccc2s1
inactive: [1] > 100 µM | [2] > 100 µM | [3] > 100 µM | [4] > 100 µM | [5] > 100 µM | [6] > 100 µM | [7] > 100 µM | [8] > 100 µM | [9] > 100 µM | [10] > 100 µM | [11] > 100 µM | [12] > 100 µM | [13] > 100 µM | [14] > 100 µM | [15] > 100 µM | [16] > 100 µM | [17] > 100 µM | [18] > 100 µM | [19] > 100 µM | [20] > 100 µM | [21] > 100 µM | [22] > 100 µM | [23] > 100 µM | [24] > 100 µM | [25] > 100 µM | [26] > 100 µM | [27] > 100 µM | [28] > 100 µM | [29] > 100 µM | [30] > 100 µM | [31] > 100 µM | [33] > 100 µM | [34] > 100 µM | [35] > 100 µM | [36] > 100 µM | [37] > 100 µM | [38] > 100 µM | [39] > 100 µM | [40] > 100 µM | [41] > 100 µM | [42] > 100 µM | [43] > 100 µM | [44] > 100 µM | [45] > 100 µM | [46] > 100 µM | [47] > 100 µM | [48] > 100 µM | [49] > 100 µM | [50] > 100 µM | [51] > 100 µM | [52] > 100 µM | [53] > 100 µM | [54] > 100 µM
> 100 µM: [32]

CNCCNc1ccc2c3c(nn2CCNCCO)-c2c(O)ccc(O)c2C(=O)c13
active: [1] 0.55 µM | [2] 0.101 µM | [55] 0.109 µM | [56] 0.966 µM | [58] 0.635 µM | [9] 0.0397 µM | [13] 0.08 µM | [16] 0.0519 µM | [59] 0.535 µM | [60] 0.0139 µM | [18] 0.273 µM | [19] 0.0575 µM | [61] 0.166 µM | [62] 0.211 µM | [22] 0.111 µM | [23] 0.0179 µM | [25] 1.03 µM | [26] 0.378 µM | [27] 0.173 µM | [63] 0.0713 µM | [33] 0.346 µM | [35] 0.0681 µM | [36] 0.2 µM | [37] 0.0597 µM | [44] 0.454 µM | [64] 0.923 µM | [46] 0.508 µM | [48] 0.0601 µM | [49] 0.0227 µM | [52] 0.526 µM | [53] 0.468 µM
1.72 µM: [32]
inactive: [57] 20.8 µM | [12] 1.81 µM | [31] 1.26 µM

CCO/C([O-])=C(\C(=O)c1ccccc1)[n+]1c(C)sc2ccccc21
inactive: [1] > 100 µM | [2] > 100 µM | [3] 96.6 µM | [4] 93.3 µM | [5] > 100 µM | [6] 50.6 µM | [7] > 100 µM | [8] > 100 µM | [10] > 100 µM | [11] 81.3 µM | [12] 13.5 µM | [13] > 100 µM | [14] 96.6 µM | [15] 83.6 µM | [60] 59.3 µM | [17] > 100 µM | [18] > 100 µM | [19] 32.3 µM | [20] > 100 µM | [21] > 100 µM | [62] > 100 µM | [22] 61.8 µM | [23] > 100 µM | [24] 16.7 µM | [25] > 100 µM | [26] > 100 µM | [29] 58.3 µM | [30] > 100 µM | [31] > 100 µM | [65] 59 µM | [33] > 100 µM | [34] 18.4 µM | [35] 64.4 µM | [36] > 100 µM | [37] 45.5 µM | [38] > 100 µM | [39] 54.1 µM | [40] 53.2 µM | [41] > 100 µM | [42] > 100 µM | [43] 52.8 µM | [44] > 100 µM | [45] 49.2 µM | [46] 20 µM | [47] > 100 µM | [48] > 100 µM | [49] > 100 µM | [50] > 100 µM | [51] 81.3 µM | [52] > 100 µM | [53] > 100 µM | [54] > 100 µM
21.9 µM: [32]

Source: ChEMBL document CHEMBL1201862, “PubChem BioAssay data set” (2004)
